The values that follow are results of earlier work, collected in patent publication US20080280370A1, “METHODS AND COMPOSITIONS FOR DETECTING […] METABOLITES THEREOF” (priority 2007, published 2008).

Data set [1] concerns the target T1, EPSPS (enolpyruvylshikimate-3-phosphate synthase) enzyme (Arabidopsis thaliana, UniProt P05466).
T1 sequence (P05466 77-520): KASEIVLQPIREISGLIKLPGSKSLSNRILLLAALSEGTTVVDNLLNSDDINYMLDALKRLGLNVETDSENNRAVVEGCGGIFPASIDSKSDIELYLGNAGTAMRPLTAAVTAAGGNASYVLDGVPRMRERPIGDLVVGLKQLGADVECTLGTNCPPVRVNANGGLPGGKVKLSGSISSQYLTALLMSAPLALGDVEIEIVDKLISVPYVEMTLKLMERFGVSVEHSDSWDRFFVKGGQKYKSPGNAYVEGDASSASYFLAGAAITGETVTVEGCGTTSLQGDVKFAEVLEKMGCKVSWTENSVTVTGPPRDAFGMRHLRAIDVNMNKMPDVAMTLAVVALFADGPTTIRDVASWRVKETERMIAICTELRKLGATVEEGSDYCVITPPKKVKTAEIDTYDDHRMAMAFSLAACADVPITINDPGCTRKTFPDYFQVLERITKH
Conditions: enzyme required for biosynthesis of aromatic amino acids in plants.

A further data set deals with plants. The settings on record: metabolite formed by glyat acetylation; Castle et al. (2004).

`O=C(O)CNCP(=O)(O)O` [glyphosate, N-(phosphonomethyl)glycine]: the “Effect on EPSPS enzyme” value in data set [1] is reported as “inhibits”.
Regarding `CC(=O)N(CC(=O)O)CP(=O)(O)O` [N-acetylglyphosate, N-Acetyl-N-(phosphonomethyl)glycine], the Phytotoxicity entry in the data set with plants is “non-phytotoxic”.
